Experiments:
Assay type in all cases: in vivo
[1] = test system: lambsquarters (Chenopodium album); test: Test C postemergence
Source text: (§1) Seeds of plant species selected from bermudagrass (Cynodon dactylon), Surinam grass (Brachiaria decumbens), cocklebur (Xanthium strumarium), corn (Zea mays), crabgrass (Digitaria sanguinalis), woolly cupgrass (Eriochloa villosa), giant foxtail (Setaria faberii), goosegrass (Eleusine indica), johnsongrass (Sorghum halepense), kochia (Kochia scoparia), lambsquarters (Chenopodium album), morningglory (Ipomoea hederacea), yellow nutsedge (Cyperus esculentus), pigweed (Amaranthus retroflexus), common ragweed (Ambrosia elatior), soybean (Glycine max) and velvetleaf (Abutilon theophrasti) were planted and treated preemergence with test chemicals formulated in a non-phytotoxic solvent mixture which included a surfactant.
(§2) At the same time, plants selected from these crop and weed species and also winter barley (Hordeum vulgare), blackgrass (Alopecurus myosuroides), canary grass (Phalaris minor), chickweed (Stellaria media), downy brome (Bromus tectorum), green foxtail (Setaria viridis), Italian ryegrass (Lolium multiflorum), wheat (Triticum aestivum), wild oat (Avena fatua) and windgrass (Apera spica-venti) were treated with postemergence applications of some of the test chemicals formulated in the same manner. Plants ranged in height from 2 to 18 cm (1- to 4-leaf stage) for postemergence treatments. Plant species in the flooded paddy test consisted of rice (Oryza saliva), smallflower flatsedge (Cyperus difformis), duck salad (Heteranthera limosa) and barnyardgrass (Echinochloa crus-galli) grown to the 2-leaf stage for testing. Treated plants and controls were maintained in a greenhouse for 12 to 14 days, after which time all species were compared to controls and visually evaluated. Plant response ratings, summarized in Table C, are based on a scale of 0 to 100 where 0 is no effect and 100 is complete control. A dash (-) response means no test result.

[2] = test system: bermudagrass (Cynodon dactylon); test: Test C postemergence
Source text: as §1, §2

[3] = test system: smallflower flatsedge (Cyperus difformis); test: Test C flooded paddy test; conditions: for Flatsedge plant response rating: Flooded Paddy, scale 0 to 100, 0 no effect, 100 complete control; for Plant response rating, Flatsedge: flooded paddy test, scale 0 to 100 (0 no effect, 100 complete control)
Method in brief: (§3)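 Visual injury score, 0 (no effect) to 100 (complete control), relative to controls. Paddy plants treated at 2-leaf stage; greenhouse hold 12–14 d before rating.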

[4] = test system: duck salad (Heteranthera limosa); test: Test C flooded paddy test; conditions: for Ducksalad plant response rating: Flooded Paddy, scale 0 to 100, 0 no effect, 100 complete control; for Plant response rating, Ducksalad: flooded paddy test, scale 0 to 100 (0 no effect, 100 complete control)
Method in brief: as §3

[5] = Rate 125 g/ha, scale 0 to 100, 0 no effect, 100 complete control
[6] = Rate 250 g/ha, scale 0 to 100 (0 no effect, 100 complete control)
[7] = Rate 500 g/ha, scale 0 to 100 (0 no effect, 100 complete control)

| SMILES | Plant response rating, Lambsquarters ([1]; Rate 62 g/ha, scale 0 to 100) | Plant response rating, Lambsquarters [1, 5] | Plant response rating, Lambsquarters [1, 6] | Plant response rating, Lambsquarters [1, 7] | Plant response rating, Bermudagrass ([2]; Rate 62 g/ha, scale 0 to 100) | Plant response rating, Bermudagrass [2, 5] | Plant response rating, Bermudagrass [2, 6] | Plant response rating, Bermudagrass [2, 7] | Flatsedge plant response rating ([3]; Rate 250 g/ha) | Flatsedge plant response rating ([3]; Rate 500 g/ha) | Plant response rating, Flatsedge ([3]; Rate 62 g/ha) | Plant response rating, Flatsedge ([3]; Rate 125 g/ha) | Ducksalad plant response rating ([4]; Rate 250 g/ha) | Ducksalad plant response rating ([4]; Rate 500 g/ha) | Plant response rating, Ducksalad ([4]; Rate 62 g/ha) | Plant response rating, Ducksalad ([4]; Rate 125 g/ha) |
| --- | --- | --- | --- | --- | --- | --- | --- | --- | --- | --- | --- | --- | --- | --- | --- | --- |
| O=C1C(n2ccc(C3CCC3)n2)SCN1c1cccc(OC(F)(F)F)c1 (centres unmarked) [Compound 38] | 30 | 30 | 70 | 70 | 0 | 0 | 30 | 70 | 100 | 100 | 100 | 100 | 90 | 80 | 50 | 90 |
| O=C1C(n2ccc(C3CCC3)n2)OCN1c1cccc(C(F)(F)F)c1 (centres unmarked) [Compound 39] | – | – | – | – | – | – | – | – | 100 | 100 | 90 | 100 | 70 | 100 | 20 | 60 |
| CCC(C)c1ccn(C2SCN(c3cccc(OC(F)(F)F)c3)C2=O)n1 (centres unmarked) [Compound 40] | 20 | 40 | 50 | 70 | 0 | 20 | 60 | 70 | 100 | 100 | 100 | 100 | 100 | 100 | 90 | 100 |
| CC(C)c1ccn(C2SCN(c3cccc(OC(F)F)c3)C2=O)n1 (centres unmarked) [Compound 44] | – | – | – | – | – | – | – | – | 100 | 100 | 90 | 100 | 100 | 100 | 50 | 90 |
| O=C1C(n2ccc(C3CCC3)n2)SCN1c1cccc(OC(F)F)c1 (centres unmarked) [Compound 45] | – | – | – | – | – | – | – | – | 100 | 100 | 90 | 100 | 100 | 100 | 50 | 80 |
| CC1(c2ccn(C3OCN(c4cccc(C(F)(F)F)c4)C3=O)n2)CC1 (centres unmarked) [Compound 62] | – | – | – | – | – | – | – | – | 90 | 100 | 0 | 90 | 0 | 0 | 0 | 0 |
| CC1(c2ccn(C3SCN(c4cccc(OC(F)(F)F)c4)C3=O)n2)CC1 (centres unmarked) [Compound 63] | – | – | – | – | – | – | – | – | 100 | 100 | 90 | 100 | 80 | 100 | 20 | 20 |
| CC1(c2ccn(C3SCN(c4cccc(C(F)(F)F)c4)C3=O)n2)CC1 (centres unmarked) [Compound 64] | – | – | – | – | – | – | – | – | 100 | 100 | 100 | 100 | 90 | 90 | 0 | 30 |
| CCC(C)c1ccn(C2OCN(c3cccc(OC(F)(F)F)c3)C2=O)n1 (centres unmarked) [Compound 67] | – | – | – | – | – | – | – | – | 100 | 100 | 100 | 100 | 100 | 100 | 50 | 90 |
| CCC(CC)c1ccn(C2OCN(c3cccc(OC(F)(F)F)c3)C2=O)n1 (centres unmarked) [Compound 68] | 60 | 80 | 80 | 100 | 0 | 0 | 20 | 40 | 100 | 100 | 100 | 100 | 100 | 100 | 100 | 100 |
| CC1(c2ccn(C3OCN(c4cccc(OC(F)(F)F)c4)C3=O)n2)CC1 (centres unmarked) [Compound 69] | – | – | – | – | – | – | – | – | 100 | 100 | 100 | 100 | 0 | 20 | 0 | 0 |
| COc1cc(OC)cc(N2CCC(n3ccc(C(C)(C)C)n3)C2=O)c1 (centres unmarked) [Compound 71] | – | – | – | – | – | – | – | – | 100 | 100 | 80 | 100 | 30 | 30 | 0 | 20 |
| CCOC(=O)c1cccc(N2CCC(n3ccc(C(C)(C)C)n3)C2=O)c1 (centres unmarked) [Compound 72] | – | – | – | – | – | – | – | – | 90 | 100 | 60 | 90 | 90 | 90 | 40 | 80 |
| CC(C)(C)c1ccn(C2CCN(c3ccc(F)c(Br)c3)C2=O)n1 (centres unmarked) [Compound 75] | – | – | – | – | – | – | – | – | 100 | 100 | 90 | 90 | – | 90 | 70 | 80 |
| CC(C)(C)c1ccn(C2CCN(c3cccc(OC(F)F)c3)C2=O)n1 (centres unmarked) [Compound 76] | – | – | – | – | – | – | – | – | 90 | 90 | 90 | 90 | 80 | 100 | 30 | 80 |
| Cc1ccc(N2CCC(n3ccc(C(C)(C)C)n3)C2=O)cc1OC(F)F (centres unmarked) [Compound 79] | – | – | – | – | – | – | – | – | 90 | 90 | 90 | 90 | 90 | 90 | 0 | 30 |
| CC(C)Oc1cccc(N2CCC(n3ccc(C(C)C)n3)C2=O)c1 (centres unmarked) [Compound 82] | – | – | – | – | – | – | – | – | 90 | 100 | 90 | 90 | 90 | 100 | 20 | 30 |
| CCC(C)c1ccn(C2CCN(c3cccc(OC(C)C)c3)C2=O)n1 (centres unmarked) [Compound 83] | – | – | – | – | – | – | – | – | 100 | 100 | 90 | 100 | 100 | 100 | 40 | 40 |

Source: US7138361B2, “Herbicidal heterocycles” (E. I. du Pont de Nemours and Company, priority 2000, dated 2006)
